Data published in PubChem BioAssay AID330 (DTP/NCI, 2004).
Where “and” joins values, the source holds several entries; their conditions need not be identical. Equal values may be shown once. Toxic doses and inconclusive results are not listed. The calls were made as follows: active = survival T/C of 150% or more; inactive = T/C below 125% in these data. Peptide text beside a SMILES is read from it. * marks the point of attachment. Cbz = O=C(OCc1ccccc1)*

System: P388 leukemia ip, CD2F1 mice, survival T/C
Experiment: NCI In Vivo Anticancer Drug Screen. Data for tumor model P388 Leukemia (intraperitoneal) in CD2F1 (CDF1) mice
Details: endpoint: median survival time, higher = longer survival
Outline: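 Mice carrying the transplanted tumor received test compound or vehicle. Survival was recorded in each group, and the value is the treated-group measurement divided by that of the vehicle-treated control group.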

[1] = dose: 100.0 mg/kg/injection, schedule: Q04DX003 (ip), vehicle: Klucel (hydroxypropylcellulose) (HPC)
[2] = dose: 200.0 mg/kg/injection, schedule: Q04DX003 (ip), vehicle: Klucel (hydroxypropylcellulose) (HPC)
[3] = dose: 50.0 mg/kg/injection, schedule: Q01DX009 (ip), vehicle: Klucel (hydroxypropylcellulose) (HPC)
[4] = dose: 100.0 mg/kg/injection, schedule: Q01DX009 (ip), vehicle: Klucel (hydroxypropylcellulose) (HPC)
[5] = dose: 200.0 mg/kg/injection, schedule: Q01DX009 (ip), vehicle: Klucel (hydroxypropylcellulose) (HPC)
[6] = dose: 50.0 mg/kg/injection, schedule: Q01DX005 (ip), vehicle: saline with Tween-80
[7] = dose: 50.0 mg/kg/injection, schedule: Q01DX009 (ip), vehicle: saline
[8] = dose: 50.0 mg/kg/injection, schedule: Q01DX009 (ip), vehicle: saline with Tween-80
[9] = dose: 100.0 mg/kg/injection, schedule: Q01DX009 (ip), vehicle: saline with Tween-80
[10] = dose: 200.0 mg/kg/injection, schedule: Q01DX009 (ip), vehicle: saline with Tween-80
[11] = dose: 50.0 mg/kg/injection, schedule: Q01DX005 (ip), vehicle: Klucel (hydroxypropylcellulose) (HPC)

Measured: T/C

CCC(C(=O)N(C)C)n1nc(Br)c(Br)c1C (stereo not drawn)
inactive: [1] 97 % of control | [2] 95 % of control

COc1ccc2c(c1)CCC1=C2CCP1(C)=S (stereo not drawn)
inactive: [3] 106 % of control | [4] 97 % of control | [5] 88 % of control

O=c1c(Cl)c(Cl)oc(Cl)c1Cl
inactive: [6] 100 % of control | dose: 100.0 mg/kg/injection, schedule: Q01DX005 (ip), vehicle: saline with Tween-80 98 % of control

Cn1c(-c2ccc(/C=N/N=C(\N)N/N=C/c3ccc(-c4c[n+]5ccsc5n4C)cc3)cc2)c[n+]2ccsc12
inactive: dose: 0.13 mg/kg/injection, schedule: Q01DX005 (ip), vehicle: saline 108 % of control | dose: 0.25 mg/kg/injection, schedule: Q01DX005 (ip), vehicle: saline 121 % of control

CNC(=O)OCCC(OC(=O)NC)C1CCC2C3CC=C4CC(OC(C)=O)CCC4(C)C3CCC12C (stereo not drawn)
inactive: dose: 100.0 mg/kg/injection, schedule: Q01DX001 (ip), vehicle: Klucel (hydroxypropylcellulose) (HPC) 103 % of control | dose: 200.0 mg/kg/injection, schedule: Q01DX001 (ip), vehicle: Klucel (hydroxypropylcellulose) (HPC) 104 % of control | dose: 400.0 mg/kg/injection, schedule: Q01DX001 (ip), vehicle: Klucel (hydroxypropylcellulose) (HPC) 110 % of control

CCOC(=O)/C=C1/SC(N2CCCCC2)C(=O)N1C (stereo not drawn)
inactive: [7] 100 % of control | dose: 100.0 mg/kg/injection, schedule: Q01DX009 (ip), vehicle: saline 104 % of control | dose: 200.0 mg/kg/injection, schedule: Q01DX009 (ip), vehicle: saline 100 % of control

O=[N+]([O-])c1ccc2c(ccc3sc4ccccc4[n+]32)c1
inactive: dose: 6.25 mg/kg/injection, schedule: Q01DX005 (ip), vehicle: saline with Tween-80 95 % of control | dose: 12.5 mg/kg/injection, schedule: Q01DX005 (ip), vehicle: saline with Tween-80 108 % of control | dose: 25.0 mg/kg/injection, schedule: Q01DX005 (ip), vehicle: saline with Tween-80 111 % of control | [6] 112 % of control

Cc1ccc(C)c2c3c([nH]c12)-c1ccccc1CC3
inactive: [8] 103 % of control | [9] 107 % of control | [10] 103 % of control

Cn1c(=O)[nH]c2nncnc2c1=O
inactive: dose: 2.0 mg/kg/injection, schedule: Q01DX009 (ip), vehicle: water 101 % of control | dose: 4.0 mg/kg/injection, schedule: Q01DX009 (ip), vehicle: water 100 % of control | dose: 8.0 mg/kg/injection, schedule: Q01DX009 (ip), vehicle: water 104 % of control | dose: 12.5 mg/kg/injection, schedule: Q01DX009 (ip), vehicle: water 99 % of control | dose: 16.0 mg/kg/injection, schedule: Q01DX009 (ip), vehicle: water 101 % of control | dose: 25.0 mg/kg/injection, schedule: Q01DX009 (ip), vehicle: water 117 % of control | dose: 32.0 mg/kg/injection, schedule: Q01DX009 (ip), vehicle: water 104 % of control | dose: 64.0 mg/kg/injection, schedule: Q01DX009 (ip), vehicle: water 123 % of control | dose: 375.0 micrograms/kg/injection, schedule: Q01DX009 (ip), vehicle: saline 97 % of control | dose: 750.0 micrograms/kg/injection, schedule: Q01DX009 (ip), vehicle: saline 100 % of control | dose: 1500.0 micrograms/kg/injection, schedule: Q01DX009 (ip), vehicle: saline 91 % of control | dose: 3000.0 micrograms/kg/injection, schedule: Q01DX009 (ip), vehicle: saline 100 % of control

[CH3][Sn]([CH3])([n]1ccnc1)[n]1ccnc1
inactive: dose: 6.25 mg/kg/injection, schedule: Q01DX005 (ip), vehicle: Klucel (hydroxypropylcellulose) (HPC) 120 % of control | dose: 12.5 mg/kg/injection, schedule: Q01DX005 (ip), vehicle: Klucel (hydroxypropylcellulose) (HPC) 119 % of control | [11] 120 % of control

CCCCOC1OCN(CCCN(C)C)CC1(C)C (stereo not drawn)
inactive: [8] 108 % of control | [9] 122 % of control | [10] 122 % of control

Cc1ccc2nc(N/N=C/c3cccs3)sc2c1
inactive: [3] 100 % of control | [4] 101 % of control | [5] 94 % of control

C#CCNCCCn1c(=O)nc2n(-c3ccccc3)c3ccccc3nc-2c1=O
inactive: dose: 25.0 mg/kg/injection, schedule: Q04DX003 (ip), vehicle: Klucel (hydroxypropylcellulose) (HPC) 110 % of control | dose: 50.0 mg/kg/injection, schedule: Q04DX003 (ip), vehicle: Klucel (hydroxypropylcellulose) (HPC) 106 % of control | [1] 100 % of control and 107 % of control

CO[n+]1ccccc1Cc1ccccc1
inactive: dose: 6.25 mg/kg/injection, schedule: Q01DX009 (ip), vehicle: saline 118 % of control | dose: 12.5 mg/kg/injection, schedule: Q01DX009 (ip), vehicle: saline 112 % of control and 119 % of control | dose: 25.0 mg/kg/injection, schedule: Q01DX009 (ip), vehicle: saline 111 % of control | [7] 119 % of control

CCOC(=O)C(Cc1c[nH]c2ccccc12)NC(=O)C(Cc1ccccc1)NC(=O)C(Cc1cnc[nH]1)NC(=O)OCc1ccccc1 (stereo not drawn) (Cbz-His-Phe-Trp-OEt; configuration not given here)
inactive: [11] 93 % of control | dose: 100.0 mg/kg/injection, schedule: Q01DX005 (ip), vehicle: Klucel (hydroxypropylcellulose) (HPC) 93 % of control | dose: 200.0 mg/kg/injection, schedule: Q01DX005 (ip), vehicle: Klucel (hydroxypropylcellulose) (HPC) 89 % of control

CC(SCc1ccccc1)C(N)C(=O)O (stereo not drawn)
inactive: [8] 100 % of control | [9] 103 % of control | [10] 91 % of control

CC(O)CCOC(C[N+](=O)[O-])C(Cl)(Cl)Cl (stereo not drawn)
inactive: [8] 101 % of control and 104 % of control | [9] 117 % of control | [10] 102 % of control and 120 % of control

Cc1ccc(C)n1-c1ccsc1C(=O)NNC(=O)C(Cl)(Cl)Cl
inactive: dose: 7.5 mg/kg/injection, schedule: Q01DX005 (ip), vehicle: Klucel (hydroxypropylcellulose) (HPC) 102 % of control | dose: 15.0 mg/kg/injection, schedule: Q01DX005 (ip), vehicle: Klucel (hydroxypropylcellulose) (HPC) 101 % of control | dose: 30.0 mg/kg/injection, schedule: Q01DX005 (ip), vehicle: Klucel (hydroxypropylcellulose) (HPC) 111 % of control

Cn1cnc2cc(N3CCCCC3)c(Nc3ccc([N+](=O)[O-])cc3[N+](=O)[O-])cc2c1=O
inactive: [1] 103 % of control | [2] 98 % of control | dose: 400.0 mg/kg/injection, schedule: Q04DX003 (ip), vehicle: Klucel (hydroxypropylcellulose) (HPC) 95 % of control

C=CC(C)CC(N)C(=O)O (stereo not drawn)
inactive: dose: 60.0 mg/kg/injection, schedule: Q01DX005 (ip), vehicle: saline 123 % of control | dose: 120.0 mg/kg/injection, schedule: Q01DX005 (ip), vehicle: saline 105 % of control | dose: 240.0 mg/kg/injection, schedule: Q01DX005 (ip), vehicle: saline 104 % of control

C/C(=N\OC(=O)c1ccccc1)c1ccccc1
inactive: dose: 100.0 mg/kg/injection, schedule: Q04DX003 (ip), vehicle: saline 102 % of control | dose: 200.0 mg/kg/injection, schedule: Q04DX003 (ip), vehicle: saline 102 % of control | dose: 400.0 mg/kg/injection, schedule: Q04DX003 (ip), vehicle: saline 100 % of control

CC(=O)Nc1ccc2c(c1)/C(=C/c1ccc(N(C)C)cc1)c1ccccc1-2
inactive: dose: 25.0 mg/kg/injection, schedule: Q01DX009 (ip), vehicle: Klucel (hydroxypropylcellulose) (HPC) 91 % of control | [3] 96 % of control | [4] 96 % of control | [5] 100 % of control

CC(=O)OCN(C)C=O
inactive: dose: 125.0 mg/kg/injection, schedule: Q01DX005 (ip), vehicle: water 96 % of control | dose: 250.0 mg/kg/injection, schedule: Q01DX005 (ip), vehicle: water 91 % of control | dose: 500.0 mg/kg/injection, schedule: Q01DX005 (ip), vehicle: water 98 % of control
